# In patent US9035074B2, “Pyrrolo[2,3-D]pyrimidine derivatives” (Pfizer Inc., priority 2013, dated 2015):
# Target: JAK3 (Homo sapiens (Human), UniProt P52333)
# Assay: JAK Caliper Enzyme Assay at 1 mM ATP (JAK3)
# Type: biochemical
# Sequence of JAK3 (P52333 whole entry, species assumed): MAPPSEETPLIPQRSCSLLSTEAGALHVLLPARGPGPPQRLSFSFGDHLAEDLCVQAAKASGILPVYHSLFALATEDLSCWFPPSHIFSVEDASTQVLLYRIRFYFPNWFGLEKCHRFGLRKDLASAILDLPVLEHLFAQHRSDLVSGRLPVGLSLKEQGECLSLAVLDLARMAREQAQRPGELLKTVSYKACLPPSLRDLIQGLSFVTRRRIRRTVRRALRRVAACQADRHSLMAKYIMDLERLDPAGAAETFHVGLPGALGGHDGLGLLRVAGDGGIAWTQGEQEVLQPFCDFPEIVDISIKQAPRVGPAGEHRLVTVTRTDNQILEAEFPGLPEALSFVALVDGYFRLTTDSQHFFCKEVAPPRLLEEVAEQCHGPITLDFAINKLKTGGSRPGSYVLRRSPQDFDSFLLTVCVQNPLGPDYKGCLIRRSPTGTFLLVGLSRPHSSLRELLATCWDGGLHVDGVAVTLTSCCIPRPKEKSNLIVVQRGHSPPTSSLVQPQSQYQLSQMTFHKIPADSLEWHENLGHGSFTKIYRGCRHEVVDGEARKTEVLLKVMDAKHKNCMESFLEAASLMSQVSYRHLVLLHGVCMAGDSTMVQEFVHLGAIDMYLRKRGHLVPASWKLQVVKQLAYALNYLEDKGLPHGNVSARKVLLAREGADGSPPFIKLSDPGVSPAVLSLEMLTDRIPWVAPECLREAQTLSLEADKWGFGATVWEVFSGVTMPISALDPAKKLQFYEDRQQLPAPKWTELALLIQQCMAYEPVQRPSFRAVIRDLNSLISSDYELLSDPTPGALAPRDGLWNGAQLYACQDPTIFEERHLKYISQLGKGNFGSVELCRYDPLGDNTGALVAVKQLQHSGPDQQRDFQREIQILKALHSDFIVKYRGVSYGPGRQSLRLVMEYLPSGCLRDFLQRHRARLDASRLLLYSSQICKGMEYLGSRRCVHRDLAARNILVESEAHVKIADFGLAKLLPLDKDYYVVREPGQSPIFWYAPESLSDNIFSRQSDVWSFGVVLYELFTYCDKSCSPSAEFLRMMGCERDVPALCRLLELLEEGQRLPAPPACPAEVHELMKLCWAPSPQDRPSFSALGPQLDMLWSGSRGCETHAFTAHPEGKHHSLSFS
row,IC50,SMILES
1,> 10 µM,"CN(c1ncnc2[nH]ccc12)[C@H]1C[C@@H](NS(=O)(=O)[C@H]2C[C@@H](CC#N)C2)C1 [Example 4A, cis-3-(cyanomethyl)-N-{cis-3-[methyl(7H-pyrrolo[2,3-d]pyrimidin-4-yl)amino]-cyclobutyl}cyclobutane-sulfonamide]"
2,> 10 µM,"CN(c1ncnc2[nH]ccc12)[C@H]1C[C@@H](NS(=O)(=O)[C@H]2C[C@H](CC#N)C2)C1 [Example 4B, trans-3-(cyanomethyl)-N-{cis-3-[methyl(7H-pyrrolo[2,3-d]pyrimidin-4-yl)amino]cyclobutyl}-cyclobutanesulfonamide]"
3,> 10 µM,"CN(c1ncnc2[nH]ccc12)[C@H]1C[C@@H](NS(=O)(=O)[C@H]2C[C@@](C)(CC#N)C2)C1 [Example 7A, cis-3-(cyanomethyl)-3-methyl-N-{cis-3-[methyl(7H-pyrrolo[2,3-d]pyrimidin-4-yl)amino]cyclobutyl}-cyclo-butanesulfonamide]"
4,> 10 µM,"CN(c1ncnc2[nH]ccc12)[C@H]1C[C@@H](NS(=O)(=O)[C@H]2C[C@](C)(CC#N)C2)C1 [Example 7B, trans-3-(cyanomethyl)-3-methyl-N-{cis-3-[methyl(7H-pyrrolo[2,3-d]pyrimidin-4-yl)amino]cyclobutyl}cyclo-butanesulfonamide]"

# The remaining lines, values behind:
row,SMILES,IC50
1,"CN(c1ncnc2[nH]ccc12)[C@H]1C[C@@H](NS(=O)(=O)N2CC[C@@H](C#N)C2)C1 (mixture of isomers) [Example 17A, (R)- and (S)-3-Cyano-N-{cis-3-[methyl(7H-pyrrolo[2,3-d]pyrimidin-4-yl)amino]cyclobutyl}pyrrolidine-1-sulfonamide]",> 10 µM
2,"CN(c1ncnc2[nH]ccc12)[C@H]1C[C@@H](NS(=O)(=O)C2CN(C3CC3)C2)C1 [Example 15, 1-Cyclopropyl-N-{cis-3-[methyl(7H-pyrrolo[2,3-d]pyrimidin-4-yl)amino]cyclobutyl}azetidine-3-sulfonamide]",> 10 µM
3,"CN(c1ncnc2[nH]ccc12)[C@H]1C[C@@H](NS(=O)(=O)N2C[C@H]3C[C@@H](C2)O3)C1 [Example 19, N-{cis-3-[Methyl(7H-pyrrolo[2,3-d]pyrimidin-4-yl)amino]cyclobutyl}-6-oxa-3-azabicyclo[3.1.1]heptane-3-sulfonamide]",> 10 µM
4,"CN(c1ncnc2[nH]ccc12)[C@H]1C[C@@H](CS(=O)(=O)N2CCC(F)(F)CC2)C1 [Example 25, N-(cis-3-{[(4,4-Difluoropiperidin-1-yl)sulfonyl]methyl}cyclobutyl)-N-methyl-7H-pyrrolo[2,3-d]pyrimidin-4-amine]",> 10 µM
5,"CN(c1ncnc2[nH]ccc12)[C@H]1C[C@@H](CS(=O)(=O)CCC2CC2)C1 [Example 32, N-(cis-3-{[(2-Cyclopropylethyl)sulfonyl]methyl}cyclobutyl)-N-methyl-7H-pyrrolo[2,3-d]pyrimidin-4-amine]",> 10 µM
6,"Cc1ncc(S(=O)(=O)N[C@H]2C[C@@H](N(C)c3ncnc4[nH]ccc34)C2)s1 [Example 38, 2-Methyl-N-{cis-3-[methyl(7H-pyrrolo[2,3-d]pyrimidin-4-yl)amino]cyclobutyl}-1,3-thiazole-5-sulfonamide]",> 10 µM
